These molecules were tested on test plant species (assay: Post-emergent herbicidal activity test (greenhouse, foliar spray, visual growth reduction)). Conditions: post-emergence, 336 h, ALOMY: blackgrass (Alopecurus myosuroides), 140 g ai/ha, 14 days after application, read-out: Visual Growth Reduction (%) 14 Days After Application, ALOMY.
Format: in vivo
In short: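 Visual percent injury (0-100) rated 14 d after treatment, relative to nontreated and solvent-blank plants. Test plants at first or second true leaf stage received an overhead track-sprayer application at 187 L/ha. Compounds were formulated in aqueous acetone/DMSO carrier containing crop oil concentrate and X-77 surfactant.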
`COC(=O)c1nc(-c2c(Cl)cc(C(F)(F)F)cc2C#N)ccc1Cl` [F118, Methyl 3-chloro-6-(2-chloro-6-cyano-4-(trifluoromethyl)phenyl)picolinate] was tested, and the pest or weed control at 140 g/ha was 30 to 44%.

Same assay, conditions: post-emergence, 336 h, AMARE: redroot pigweed (Amaranthus retroflexus), 140 g ai/ha, 14 days after application, read-out: Visual Growth Reduction (%) 14 Days After Application, AMARE
In the case of `COC(=O)c1nc(-c2c(Cl)cc(C(F)(F)F)cc2C#N)ccc1Cl` [F118, Methyl 3-chloro-6-(2-chloro-6-cyano-4-(trifluoromethyl)phenyl)picolinate], the pest or weed control at 140 g/ha is reported as 95 to 100%.

Same assay, conditions: post-emergence, 336 h, AVEFA: wild oat (Avena fatua), 140 g ai/ha, 14 days after application, read-out: Visual Growth Reduction (%) 14 Days After Application, AVEFA
For `COC(=O)c1nc(-c2c(Cl)cc(C(F)(F)F)cc2C#N)ccc1Cl` [F118, Methyl 3-chloro-6-(2-chloro-6-cyano-4-(trifluoromethyl)phenyl)picolinate], the pest or weed control at 140 g/ha was 60 to 74%.

Same assay, conditions: post-emergence, 336 h, CHEAL: lambsquarters (Chenopodium album), 140 g ai/ha, 14 days after application, read-out: Visual Growth Reduction (%) 14 Days After Application, CHEAL
`COC(=O)c1nc(-c2c(Cl)cc(C(F)(F)F)cc2C#N)ccc1Cl` [F118, Methyl 3-chloro-6-(2-chloro-6-cyano-4-(trifluoromethyl)phenyl)picolinate] gave a pest or weed control at 140 g/ha of 95 to 100%.

Same assay, conditions: post-emergence, 336 h, CIRAR: canada thistle (Cirsium arvense), 140 g ai/ha, 14 days after application, read-out: Visual Growth Reduction (%) 14 Days After Application, CIRAR
With `COC(=O)c1nc(-c2c(Cl)cc(C(F)(F)F)cc2C#N)ccc1Cl` [F118, Methyl 3-chloro-6-(2-chloro-6-cyano-4-(trifluoromethyl)phenyl)picolinate] the pest or weed control at 140 g/ha was 95 to 100%.

Same assay, conditions: post-emergence, 336 h, CYPES: yellow nutsedge (Cyperus esculentus), 140 g ai/ha, 14 days after application, read-out: Visual Growth Reduction (%) 14 Days After Application, CYPES
`COC(=O)c1nc(-c2c(Cl)cc(C(F)(F)F)cc2C#N)ccc1Cl` [F118, Methyl 3-chloro-6-(2-chloro-6-cyano-4-(trifluoromethyl)phenyl)picolinate] gave a pest or weed control at 140 g/ha of 45 to 59%.

Same assay, conditions: post-emergence, 336 h, DIGSA: crabgrass (Digitaria sanguinalis), 140 g ai/ha, 14 days after application, read-out: Visual Growth Reduction (%) 14 Days After Application, DIGSA
For `COC(=O)c1nc(-c2c(Cl)cc(C(F)(F)F)cc2C#N)ccc1Cl` [F118, Methyl 3-chloro-6-(2-chloro-6-cyano-4-(trifluoromethyl)phenyl)picolinate], the pest or weed control at 140 g/ha was 85 to 94%.

Same assay, conditions: post-emergence, 336 h, ECHCG: barnyardgrass (Echinochloa crus-galli), 140 g ai/ha, 14 days after application, read-out: Visual Growth Reduction (%) 14 Days After Application, ECHCG
`COC(=O)c1nc(-c2c(Cl)cc(C(F)(F)F)cc2C#N)ccc1Cl` [F118, Methyl 3-chloro-6-(2-chloro-6-cyano-4-(trifluoromethyl)phenyl)picolinate] showed a pest or weed control at 140 g/ha of 85 to 94%.

Same assay, conditions: post-emergence, 336 h, IPOHE: ivy-leaf morning glory (Ipomoea hederacea), 140 g ai/ha, 14 days after application, read-out: Visual Growth Reduction (%) 14 Days After Application, IPOHE
With `COC(=O)c1nc(-c2c(Cl)cc(C(F)(F)F)cc2C#N)ccc1Cl` [F118, Methyl 3-chloro-6-(2-chloro-6-cyano-4-(trifluoromethyl)phenyl)picolinate] the pest or weed control at 140 g/ha was 95 to 100%.

Same assay, conditions: post-emergence, 336 h, KCHSC: kochia (Bassia scoparia), 140 g ai/ha, 14 days after application, read-out: Visual Growth Reduction (%) 14 Days After Application, KCHSC
For `COC(=O)c1nc(-c2c(Cl)cc(C(F)(F)F)cc2C#N)ccc1Cl` [F118, Methyl 3-chloro-6-(2-chloro-6-cyano-4-(trifluoromethyl)phenyl)picolinate], the pest or weed control at 140 g/ha was 95 to 100%.

Same assay, conditions: post-emergence, 336 h, ORYSA: rice (Oryza sativa), 140 g ai/ha, 14 days after application, read-out: Visual Growth Reduction (%) 14 Days After Application, ORYSA
`COC(=O)c1nc(-c2c(Cl)cc(C(F)(F)F)cc2C#N)ccc1Cl` [F118, Methyl 3-chloro-6-(2-chloro-6-cyano-4-(trifluoromethyl)phenyl)picolinate] was tested, and the pest or weed control at 140 g/ha was 60 to 74%.

Same assay, conditions: post-emergence, 336 h, SETFA: giant foxtail (Setaria faberi), 140 g ai/ha, 14 days after application, read-out: Visual Growth Reduction (%) 14 Days After Application, SETFA
With `COC(=O)c1nc(-c2c(Cl)cc(C(F)(F)F)cc2C#N)ccc1Cl` [F118, Methyl 3-chloro-6-(2-chloro-6-cyano-4-(trifluoromethyl)phenyl)picolinate] the pest or weed control at 140 g/ha was 60 to 74%.

Same assay, conditions: post-emergence, 336 h, SORVU: grain sorghum (Sorghum vulgare), 140 g ai/ha, 14 days after application, read-out: Visual Growth Reduction (%) 14 Days After Application, SORVU
For `COC(=O)c1nc(-c2c(Cl)cc(C(F)(F)F)cc2C#N)ccc1Cl` [F118, Methyl 3-chloro-6-(2-chloro-6-cyano-4-(trifluoromethyl)phenyl)picolinate], the pest or weed control at 140 g/ha was 85 to 94%.

Same assay, conditions: post-emergence, 336 h, STEME: common chickweed (Stellaria media), 140 g ai/ha, 14 days after application, read-out: Visual Growth Reduction (%) 14 Days After Application, STEME
In the case of `COC(=O)c1nc(-c2c(Cl)cc(C(F)(F)F)cc2C#N)ccc1Cl` [F118, Methyl 3-chloro-6-(2-chloro-6-cyano-4-(trifluoromethyl)phenyl)picolinate], the pest or weed control at 140 g/ha is reported as 0 to 29%.

Same assay, conditions: post-emergence, 336 h, TRZAS: wheat, spring (Triticum aestivum), 140 g ai/ha, 14 days after application, read-out: Visual Growth Reduction (%) 14 Days After Application, TRZAS
With `COC(=O)c1nc(-c2c(Cl)cc(C(F)(F)F)cc2C#N)ccc1Cl` [F118, Methyl 3-chloro-6-(2-chloro-6-cyano-4-(trifluoromethyl)phenyl)picolinate] the pest or weed control at 140 g/ha was 0 to 29%.
